From publication PMC8397403, “Physiologically Based Pharmacokinetic Modeling of Transporter-Mediated Hepatic Disposition of Imaging Biomarker Gadoxetate in Rats” (Molecular Pharmaceutics, 2021)
Where “and” joins values, the source holds several entries; their conditions need not be identical. Equal values may be shown once.

Tested on: active uptake transport of gadoxetate into the liver
Assay: Simultaneous PBPK fitting of gadoxetate DCE-MRI data in control and rifampicin phases
Assay type: in vivo, rat
Conditions: value (CV)
Method: DCE–MRI data generated using the 3D Fast Low Angle Shot RF-spoiled gradient echo sequence (FLASH) protocol in male Wistar-Han rats were used for assessing the PBPK IVIVE performances and for obtaining some of the PBPK parameters within the bottom-up and top-down approaches, respectively. The DCE–MRI data were acquired in a multicenter study at two magnetic field strengths, 4.7 and 7 T. Gadoxetate was administered at a dose of 25 μmol/kg, either alone or 1 h after IV administration of 10 mg/kg rifampicin. When gadoxetate was administered alone (control arm), 43 profiles of blood, spleen, and liver measured at a field strength of 4.7 T and 52 profiles of blood, spleen, and liver measured at 7 T were available. In the case of gadoxetate administered with rifampicin, 7 blood, spleen, and liver profiles at a field strength equal to 4.7 T and 6 at 7 T were available. All gadoxetate DCE–MRI data and study protocols are detailed in a companion paper (Hines et al. in submission).
The DCE–MRI data used in this study were reported as ΔR1. Therefore, the relationship between the compartmental concentrations represented by the PBPK model state variables and the ΔR1 measurements for the blood, liver, and spleen needed to be described. The linear relationship in eq 4 is not valid for ΔR1 of the liver, ΔR1,liv, because intracellular and extracellular tissue compartments have different relaxivities. To derive ΔR1,liv, a volume fraction-weighted mean of the contributions of the gadoxetate concentration in all the compartments used to model the liver was performed.[40] In the spleen, the entire distribution space was supposed to have the same relaxivity as blood and, therefore, eq 4 can be applied directly to derive spleen concentrations from ΔR1,spl. Concerning the blood, the blood value for r1 in Table 1 allows ΔR1,b to be directly related to the blood concentration. The relations between ΔR1,liv, ΔR1,spl, and ΔR1,b and the concentrations of the PBPK compartments are shown in eq 7. [drawing 7] 7 cspl,extr is the extracellular concentration in the spleen and Vspl,extr is the extracellular volume of the spleen and Vliv and Vspl are the whole volumes of liver and spleen. r1,liv,extr and r1,spl,extr were assumed to be equal to r1,b, as described in Hines et al.
In fact, each of the data are acquired during a time interval Δt, which was 57 s in the current dataset. To account for this characteristic when performing the parameter estimation, the residuals were calculated as the difference of the observed ΔR1 corresponding to a given time interval minus the mean of the simulated PBPK ΔR1 within the same interval, as explained in the Supporting Information, Section 4.
The extent of interaction with rifampicin was estimated by performing a simultaneous fitting of gadoxetate ΔR1 in the control and inhibitory phase. In this analysis, PS was considered the same for both phases, whereas the other parameters were separately estimated in the absence (CLactive and CLbiliary) and in the presence of rifampicin (CLactive,inh and CLbiliary,inh). CLbiliary,inh was considered to account for possible inhibition of Mrp2 in rat by rifampicin, as previously reported.[45] To understand the impact of the inclusion of the liver-imaging data on the parameter optimization, the simultaneous estimation was also performed considering only the blood data.
All the PBPK analyses were performed in MATLAB R2020a,[50] the ordinary differential equations were solved with the function “ode15s”, while the parameter optimization was performed with the function “lsqnonlin”. The uncertainty of the parameters estimate was evaluated with the case-bootstrap,[51] using 1000 samples.

[1] = gadoxetate 1 h after rifampicin i.v. 10 mg/kg, simultaneous fit
[2] = simultaneous fit, 5-compartment liver model
[3] = with rifampicin, 5-compartment liver model

CLactive, estimated value (with rifampicin) (CLactive,inh) [1]: 0.095 (16.1%) L/h
CLbiliary, estimated value (with rifampicin) (CLbiliary,inh) [1]: 0.08 (16.7%) L/h
CLactive, estimated value (control) (simultaneous fit of control and rifampicin phases, blood, spleen, liver ΔR1): 2.38 (13.6%) L/h
CLbiliary, estimated value (control) (simultaneous fit of control and rifampicin phases): 0.07 (3.1%) L/h
PS, blood ΔR1 only (simultaneous fit using only blood ΔR1, both groups): 2.07 (20 %) L/h
CLactive control group, blood ΔR1 only (simultaneous fit using only blood ΔR1): 1.82 (30 %) L/h and 1.82 L/h
CLactive control group, 5-compartment liver model [2]: 1.45 (7.4 %) L/h
CLbiliary control group, 5-compartment liver model [2]: 0.07 (3.2 %) L/h
PS, 5-compartment liver model (simultaneous fit, both groups): 0.81 (7.2 %) L/h
PS, estimated value (simultaneous fit, same for both phases): 0.71 (5.7%) L/h
CLactive rifampicin group (CLactive,inh), blood ΔR1 only (with rifampicin 10 mg/kg, simultaneous fit using only blood ΔR1): 0.29 (45 %) L/h and 0.29 L/h
CLactive rifampicin group, 5-compartment liver model [3]: 0.065 (28.2 %) L/h
CLbiliary rifampicin group, 5-compartment liver model [3]: 0.07 (26.6 %) L/h
Compound: CCOc1ccc(C[C@@H](CN(CCN(CC(=O)[O-])CC(=O)[O-])CC(=O)[O-])N(CC(=O)[O-])CC(=O)[O-])cc1.[Gd+3].[H+].[H+] [gadoxetate]
